The values that follow come from PMC11676671, “Simultaneous Down-Regulation of Dominant Cinnamoyl CoA Reductase and Cinnamyl Alcohol Dehydrogenase Dramatically Altered Lignin Content in Mulberry” (Plants, 2024).

By Km is commonly meant the substrate concentration at which the rate is half of its maximum.

This assay relates to T1, MaCCR1.
T1 construct: full-length CDS in pET-28a, His-tagged, expressed in E. coli BL21(DE3)
The assay is described as follows: absorbance decrease of substrate, microplate reader, non-linear fit. In kind it is biochemical, Morus alba. The source says: absorbance decrease of substrate, microplate reader, non-linear fit on MaCCR1

Structures are written as SMILES.

Turning to `COc1cc(/C=C/C(=O)SCCNC(=O)CCNC(=O)[C@H](O)C(C)(C)COP(=O)(O)OP(=O)(O)OC[C@H]2O[C@@H](n3cnc4c(N)ncnc43)[C@H](O)[C@@H]2OP(=O)(O)O)ccc1O` [feruloyl CoA], the Michaelis-Menten constant (Km) (pH and temperature of the kinetic assay not printed (optimum pH 6.0, 20 °C with feruloyl CoA)) is 62.6 µM.

On to `COc1cc(/C=C/C(=O)SCCNC(=O)CCNC(=O)[C@H](O)C(C)(C)COP(=O)(O)OP(=O)(O)OC[C@H]2O[C@@H](n3cnc4c(N)ncnc43)[C@H](O)[C@@H]2OP(=O)(O)O)cc(OC)c1O` [sinapyl-CoA], for which the Km (pH and temperature of the kinetic assay not given) worked out at 160 µM.
